Source: patent publication US20130178534A1, “N-Nonanoylvanillylamine as an agent for reducing the appetite, as an agent for imparting a feeling of fullness and as a mood enhancer, and corresponding substance mixtures, orally consumable products and methods” (Symrise AG, priority 2012, published 2013)

What was measured:
[1] = tested on: SH-SY5Y cells; experiment: Release of dopamine by SH-SY5Y cells (Example 1); format: cell-based, Human; details: for T/C [%] release of dopamine: 3 minutes, normalised to control
Method: (§1) Human neuroblastoma cells (SH-SY5Y, ATCC number CRL-2266) are used as the cell model. Cultivation takes place at 37° C. and 5% CO2 content with a mixture consisting of equal parts of Eagle's Minimum Essential Medium (MEM) and F12 medium (in each case with 10% FBS and 1% penicillin/streptomycin). For measurement of the release of dopamine and serotonin, the cells are harvested with trypsin and, after a vitality test by trypan blue staining, are sown in a defined cell number in 35 mm cell culture dishes.
Method for measuring the release of dopamine:
After stimulation of 1.25*10^6 human neuroblastoma cells (SH-SY5Y) for 3 minutes with 350 μl of Krebs-Ringer HEPES buffer, pH 5, with or without addition of N-nonanoylvanillylamine (wherein in the case of addition of N-nonanoylvanillylamine, concentrations of 0.1 μM, 1 μM and 10 μM are established in the Krebs-Ringer HEPES buffer), the supernatant is acidified with 1 N HCl and the dopamine content is determined by means of an enzyme-based detection method (dopamine ELISA, DLD Diagnostica, Hamburg, Germany). The cells are lysed with a buffer containing sodium lauryl sarcosinate, and the DNA content is determined by means of a NanoQuant plate (Tecan, Ménnendorf, Switzerland) for normalisation of the dopamine release. In the case of an ethanol control (EtOH control), no N-nonanoylvanillylamine is added to the Krebs-Ringer HEPES buffer, but ethanol is added to the buffer so that a 0.1% ethanolic Krebs-Ringer HEPES buffer solution is obtained. In the case of the positive control, acetylcholine is used instead of the N-nonanoylvanillylamine, a concentration of 100 μM acetylcholine being established in the Krebs-Ringer HEPES buffer.

[2] = tested on: SH-SY5Y cells; experiment: Release of dopamine by SH-SY5Y cells with N-nonanoylvanillylamine and a TRPV1 inhibitor (Example 2); format: cell-based, Human
Method: as §1
After stimulation of 1.25*10^6 human neuroblastoma cells (SH-SY5Y) for 3 minutes with 350 μl of Krebs-Ringer HEPES buffer, pH 5, with or without addition of 1 μM N-nonanolyvanillylamine (wherein in the case of addition of N-nonanoylvanillylamine, a concentration of 1 μM is established in the Krebs-Ringer HEPES buffer) in combination with different application-relevant amounts of the selective TRPV1 inhibitor trans-4-tert-butylcyclohexanol (so that concentrations of 25, 50 and 80 μM of trans-4-tert-butylcyclo-hexanol are established in the Krebs-Ringer HEPES buffer), the supernatant is acidified with 1 N HCl and the dopamine content is determined by means of an enzyme-based detection method (dopamine ELISA, DLD Diagnostica, Hamburg, Germany). The cells are lysed with a buffer containing sodium lauryl sarcosinate, and the DNA content is determined by means of a NanoQuant plate (Tecan, Ménnendorf, Switzerland) for normalisation of the dopamine release. For comparison purposes, the tests were repeated without the addition of N-nonanoylvanillylamine.

[3] = tested on: SH-SY5Y cells; experiment: Release of serotonin by SH-SY5Y cells (Example 3); format: cell-based, Human; details: for T/C [%] release of serotonin: normalised to control
Method: as §1
After stimulation of 1.25*10^6 human neuroblastoma cells (SH-SY5Y) for 3 minutes with 300 μl of Krebs-Ringer HEPES buffer, 0.1% ascorbic acid, pH 6.2, with or without addition of N-nonanoylvanillylamine (wherein in the case of addition of N-nonanoylvanillylamine, concentrations of 0.01 μM, 0.1 μM, 1 μM and 10 μM are established in the Krebs-Ringer HEPES buffer), the serotonin content is determined by means of an enzyme-based detection method (serotonin ELISA sensitive, […], Hamburg, Germany). The cells are lysed with a buffer containing sodium lauryl sarcosinate, and the DNA content is determined by means of a NanoQuant plate (Tecan, Ménnendorf, Switzerland) for normalisation of the serotonin release.

[4] = tested on: SH-SY5Y cells; experiment: Release of serotonin by SH-SY5Y cells with N-nonanoylvanillylamine and a TRPV1 inhibitor (Example 4); format: cell-based, Human
Method: as §1
After stimulation of 1.25*10^6 human neuroblastoma cells (SH-SY5Y) for 3 minutes with 300 μl of Krebs-Ringer HEPES buffer (0.1% ascorbic acid, pH 6.2), with or without addition of N-nonanoylvanillylamine (so that a concentration of 1 μM N-nonanoylvanillylamine is established in the Krebs-Ringer HEPES buffer) in combination with different application-relevant amounts of the selective TRPV1 inhibitor trans-4-tert-butylcyclohexanol, the serotonin content is determined by means of an enzyme-based detection method (serotonin ELISA sensitive, DLD Diagnostica, Hamburg, Germany). The cells are lysed with a buffer containing sodium lauryl sarcosinate, and the DNA content is determined by means of a NanoQuant plate in a plate reader (Tecan, Ménnendorf, Switzerland) for normalisation of the serotonin release.

[5] = Kollmannsberger 2007; cited from earlier work
[6] = cited from earlier work
[7] = N-nonanoylvanillylamine 1 μM + 25 μM trans-4-tert-butylcyclohexanol
[8] = N-nonanoylvanillylamine 1 μM + 50 μM trans-4-tert-butylcyclohexanol
[9] = N-nonanoylvanillylamine 1 μM + 80 μM trans-4-tert-butylcyclohexanol
[10] = N-nonanoylvanillylamine 1 μM alone
[11] = 25 μM alone, without N-nonanoylvanillylamine
[12] = 50 μM alone, without N-nonanoylvanillylamine
[13] = 80 μM alone, without N-nonanoylvanillylamine

SMILES: CC(=O)OCC[N+](C)(C)C [Acetylcholine, acetylcholine, reference compound]
- T/C [%] release of dopamine ([1]; 100 μM (positive control)): 139.84%

SMILES: CCCCCCCCC(=O)NCc1ccc(O)c(OC)c1 [N-Nonanoylvanillylamine]
- T/C [%] release of dopamine ([1]; 0.1 μM): 697.84%
- increase in the amount of dopamine released by SH-SY5Y cells ([1]; 100 nM): seven-fold increase
- T/C [%] release of dopamine ([1]; 1 μM): 1350.94%
- T/C [%] release of dopamine ([1]; 10 μM): 1774.98%
- stimulating the release of dopamine, compared with the respective control ([1]; approximately 0.03 mg/kg (0.1 μM)): about 700%
- increase in the amount of dopamine released ([2]; 1 μM): five-fold increase
- influence of simultaneous stimulation with TRPV1 inhibitor trans-4-tert-butylcyclohexanol on the dopamine release ([2]; 1 μM N-nonanoylvanillylamine, inhibitor 25, 50 and 80 μM): not significantly influenced
- T/C [%] release of dopamine [2, 7]: 433.55%
- T/C [%] release of dopamine [2, 8]: 456.80%
- T/C [%] release of dopamine [2, 9]: 422.48%
- T/C [%] release of dopamine [2, 10]: 501.20%
- T/C [%] release of serotonin ([3]; 0.01 μM, 3 minutes): 191.35%
- amount of serotonin released by SH-SY5Y cells ([3]; 0.1 μM and above, p<0.005): increases highly significantly
- T/C [%] release of serotonin ([3]; 0.1 μM, 3 minutes): 226.44%
- T/C [%] release of serotonin ([3]; 1 μM, 3 minutes): 272.12%
- T/C [%] release of serotonin ([3]; 10 μM, 3 minutes): 185.65%
- stimulating the release of serotonin in neurons, maximum, compared with the respective control ([3]; concentration range 0.01 μM to 10 μM (0.003 mg/kg to 3 mg/kg)): about 270%
- influence of addition of TRPV1 inhibitor trans-4-tert-butylcyclohexanol on the serotonin release ([4]; 1 μM N-nonanoylvanillylamine): not significantly influenced
- T/C [%] release of serotonin [4, 7]: 154.86%
- T/C [%] release of serotonin [4, 8]: 128.74%
- T/C [%] release of serotonin [4, 9]: 140.81%
- T/C [%] release of serotonin ([4]; N-nonanoylvanillylamine 1 μM + 200 μM trans-4-tert-butylcyclohexanol): 181.93%
- T/C [%] release of serotonin [4, 10]: 151.75%
- detection threshold [5]: 0.107 mg/kg
- stimulant threshold [5]: 0.054 mg/kg
- EFSA safety rating ([6]; rated in FGE.86): no safety concern

SMILES: COc1cc(CNC(=O)CCCC/C=C/C(C)C)ccc1O [capsaicin, reference compound]
- rating for genotoxicity ([6]; EFSA / Scientific Committee on Food opinion 2002): negatively rated as having genotoxic potential

SMILES: [Cl-].[K+] [KCl, potassium chloride, reference compound]
- T/C [%] release of serotonin ([3]; 50 mM (positive control)): 153.48%

SMILES: CC(C)(C)[C@H]1CC[C@H](O)CC1 [trans-4-tert-butylcyclohexanol, reference compound]
- T/C [%] release of dopamine [2, 11]: 84.47%
- T/C [%] release of dopamine [2, 12]: 38.19%
- T/C [%] release of dopamine [2, 13]: 63.53%
- T/C [%] release of serotonin [4, 11]: 91.07%
- T/C [%] release of serotonin [4, 12]: 101.39%
- T/C [%] release of serotonin [4, 13]: 84.129%
- T/C [%] release of serotonin ([4]; 200 μM alone, without N-nonanoylvanillylamine): 110.99%
